According to PubChem BioAssay AID1259408 (Genetic Toxicology Data Bank (GENE-TOX), 2018):
Active and inactive are the calls of the source. No rule for the calls is given here.

Test system: GENE-TOX genotoxicity assays, various organisms and cells
Experiment: GENE-TOX mutagenicity studies
Conditions: for call: Assay Type: In vivo carcinogenicity studies
[1] = Species/Cell Type: Escherichia coli polA (W3119 vs P3478), Assay Type: Rec-assay, DNA effects (bacterial DNA repair), Assay Code: RE1+, Evaluation Type: Evaluation A (Pre-1980)
[2] = Species/Cell Type: Human diploid fibroblasts, Assay Type: Unscheduled DNA synthesis (UDS) in vitro, DNA effects, Assay Code: UDH+, Evaluation Type: Evaluation A (Pre-1980)
[3] = Species/Cell Type: Salmonella typhimurium (one or more of the five standard strains: TA98, TA100, TA1535, TA1537, and TA1538), Assay Type: Histidine reverse gene mutation, Ames assay, Assay Code: SAL+, Evaluation Type: Evaluation A (Pre-1980)
[4] = Species/Cell Type: Syrian hamster embryo (SHE) cells, Assay Type: Cell transformation, clonal assay, Assay Code: CTC+, Evaluation Type: Evaluation A (Pre-1980)
[5] = Species/Cell Type: Nonhuman, Assay Type: Sister-chromatid exchange (SCE) in vitro, Assay Code: SC2+, Evaluation Type: Evaluation B (Post-1980)
[6] = Species/Cell Type: Saccharomyces cerevisiae, Assay Type: Mitotic recombination or gene conversion, Assay Code: YEH-, Evaluation Type: Evaluation A (Pre-1980)
[7] = Species/Cell Type: Mammalian polychromatic erythrocytes, Assay Type: Micronucleus test, chromosome aberrations, Assay Code: MNT-, Evaluation Type: Evaluation B (Post-1980)
[8] = Species/Cell Type: Nonhuman, Assay Code: CCG+, Evaluation Type: Evaluation A (Pre-1980)
[9] = Species/Cell Type: Chinese hamster ovary (CHO) cells, Assay Type: Forward gene mutation at the HPRT locus, Assay Code: CHOT, Evaluation Type: Evaluation B (Post-1980)
[10] = Species/Cell Type: Mammalian polychromatic erythrocytes, Assay Type: Micronucleus test, chromosome aberrations, Assay Code: MNT+, Evaluation Type: Evaluation B (Post-1980)
[11] = Species/Cell Type: Human lymphocytes, Assay Type: Sister-chromatid exchange (SCE) in vitro, Assay Code: SCL+, Evaluation Type: Evaluation B (Post-1980)
[12] = Species/Cell Type: Human, Assay Type: Sister-chromatid exchange (SCE) in vitro, Assay Code: SC1+, Evaluation Type: Evaluation B (Post-1980)
[13] = Species/Cell Type: Drosophila melanogaster, Assay Type: Sex-linked recessive lethal gene mutation, Assay Code: SRL+, Evaluation Type: Evaluation A (Pre-1980)
[14] = Species/Cell Type: Salmonella typhimurium (one or more of the five standard strains: TA98, TA100, TA1535, TA1537, and TA1538), Assay Type: Histidine reverse gene mutation, Ames assay, Assay Code: SAL-, Evaluation Type: Evaluation A (Pre-1980)
[15] = Species/Cell Type: Human lymphocytes, Assay Type: Sister-chromatid exchange (SCE) in vitro, Assay Code: SCL+D, Dose Response: With dose response, Evaluation Type: Evaluation B (Post-1980)
[16] = Species/Cell Type: Human, Assay Type: Sister-chromatid exchange (SCE) in vitro, Assay Code: SC1+D, Dose Response: With dose response, Evaluation Type: Evaluation B (Post-1980)

## OCC(F)(F)F
Species/Cell Type: Salmonella typhimurium (one or more of the five standard strains: TA98, TA100, TA1535, TA1537, and TA1538), Assay Type: Histidine reverse gene mutation, Ames assay, Assay Code: SALT, Evaluation Type: Evaluation A (Pre-1980)
  mutagenic call: no conclusion

## CCOS(=O)(=O)c1ccc(C)cc1
[1]
  mutagenic call: active; positive
[2]
  mutagenic call: active; positive
Species/Cell Type: Saccharomyces cerevisiae, Assay Type: Mitotic recombination or gene conversion, Assay Code: YEH+, Evaluation Type: Evaluation A (Pre-1980)
  mutagenic call: active; positive
[3]
  mutagenic call: active; positive
Species/Cell Type: Salmonella typhimurium, Assay Type: Forward and reverse gene mutation, host-mediated assay, Assay Code: HMA-, Evaluation Type: Evaluation A (Pre-1980)
  mutagenic call: inactive; negative
[4]
  mutagenic call: active; positive

## O=[N+]([O-])c1ccc(-c2ccccc2)cc1
[1]
  mutagenic call: active; positive
Species/Cell Type: Neurospora crassa, Assay Type: Aneuploidy, chromosome aberrations, Assay Code: NEN-, Evaluation Type: Evaluation A (Pre-1980)
  mutagenic call: inactive; negative
Species/Cell Type: Nonhuman, Assay Code: CCG+L, Evaluation Type: Evaluation A (Pre-1980)
  call: active; positive
[5]
  mutagenic call: active; positive
Species/Cell Type: Nonhuman, Assay Type: Sister-chromatid exchange (SCE) in vivo, Assay Code: SC3+D, Dose Response: With dose response, Evaluation Type: Evaluation B (Post-1980)
  mutagenic call: active; positive
[6]
  mutagenic call: inactive; negative
[3]
  mutagenic call: active; positive
Species/Cell Type: Salmonella typhimurium, Assay Type: Forward and reverse gene mutation, host-mediated assay, Assay Code: HMA+, Evaluation Type: Evaluation A (Pre-1980)
  mutagenic call: active; positive
Species/Cell Type: Syrian hamster embryo (SA7/SHE) cells, Assay Type: Cell transformation, viral enhanced, Assay Code: CT7+, Evaluation Type: Evaluation A (Pre-1980)
  mutagenic call: active; positive
[4]
  mutagenic call: active; positive

## O=C1OC(O)C(C(Cl)Cl)=C1Cl (stereo not drawn)
[7]
  mutagenic call: inactive; negative

## CC(C)CCC[C@@H](C)[C@H]1CC[C@H]2[C@@H]3CC=C4C[C@@H](OC(=O)Cc5ccc(N(CCCl)CCCl)cc5)CC[C@]4(C)[C@H]3CC[C@]12C
[8]
  call: active; positive

## CCCCC(CC)COC(=O)c1ccccc1C(=O)O (stereo not drawn)
[9]
  mutagenic call: no conclusion
Species/Cell Type: Nonhuman, Assay Type: Sister-chromatid exchange (SCE) in vitro, Assay Code: SC2-, Evaluation Type: Evaluation B (Post-1980)
  mutagenic call: inactive; negative

## [O-][Br+2]([O-])O
[10]
  mutagenic call: active; positive

## NC(=O)N1C2=CC=CCC2=C(CO)c2ccccc21
Species/Cell Type: Human lymphocytes, Assay Type: Sister-chromatid exchange (SCE) in vitro, Assay Code: SCLT, Evaluation Type: Evaluation B (Post-1980)
  mutagenic call: no conclusion
Species/Cell Type: Human, Assay Type: Sister-chromatid exchange (SCE) in vitro, Assay Code: SC1T, Evaluation Type: Evaluation B (Post-1980)
  mutagenic call: no conclusion

## CC(CN(C)C)Nc1c2ccccc2nc2cccc([N+](=O)[O-])c12 (stereo not drawn)
[11]
  mutagenic call: active; positive
[12]
  mutagenic call: active; positive

## CC1CN1P(=O)(N(C)C)N(C)C (stereo not drawn)
[13]
  mutagenic call: active; positive

## Cc1c2ccccc2cc2c3c(ccc12)C(O)C(O)C=C3 (stereo not drawn)
Species/Cell Type: Mouse prostate cells, Assay Type: Cell transformation, Assay Code: CTM+, Evaluation Type: Evaluation A (Pre-1980)
  mutagenic call: active; positive
Species/Cell Type: Nonhuman, Assay Type: Sister-chromatid exchange (SCE) in vitro, Assay Code: SC2+D, Dose Response: With dose response, Evaluation Type: Evaluation A (Pre-1980)
  mutagenic call: active; positive
Species/Cell Type: Salmonella typhimurium (one or more of the five standard strains: TA98, TA100, TA1535, TA1537, and TA1538), Assay Type: Histidine reverse gene mutation, Ames assay, Assay Code: SAL+*, Activation: With metabolic activation, Evaluation Type: Evaluation A (Pre-1980)
  mutagenic call: active; positive

## C=CC(O)c1ccc2c(c1)OCO2 (stereo not drawn)
Species/Cell Type: Drosophila melanogaster, Assay Type: Sex-linked recessive lethal gene mutation, Assay Code: SRLT, Evaluation Type: Evaluation A (Pre-1980)
  mutagenic call: no conclusion
Species/Cell Type: Escherichia coli polA (W3119 vs P3478), Assay Type: Rec-assay, DNA effects (bacterial DNA repair), Assay Code: RE1-, Evaluation Type: Evaluation A (Pre-1980)
  mutagenic call: inactive; negative
[2]
  mutagenic call: active; positive
[8]
  call: active; positive
Species/Cell Type: Saccharomyces cerevisiae, Assay Type: Mitotic recombination or gene conversion, Assay Code: YEH+/-*, Activation: With metabolic activation, Evaluation Type: Evaluation A (Pre-1980)
  mutagenic call: inactive; positive without activation, negative with activation
[14]
  mutagenic call: inactive; negative

## CS(=O)(=O)OCCCCO
[13]
  mutagenic call: active; positive

## CC(C)CBr
Species/Cell Type: Escherichia coli polA (W3119 vs P3478), Assay Type: Rec-assay, DNA effects (bacterial DNA repair), Assay Code: RE1T, Evaluation Type: Evaluation A (Pre-1980)
  mutagenic call: no conclusion

## CC1(C)CN1
Species/Cell Type: Schizosaccharomyces pombe, Assay Type: Reverse gene mutation, Assay Code: YEZ+, Evaluation Type: Evaluation A (Pre-1980)
  mutagenic call: active; positive

## COC(=O)Cc1ccc(OC)c(CSC(=N)N)c1
Species/Cell Type: Saccharomyces cerevisiae, Assay Type: Reverse gene mutation, Assay Code: YERT, Evaluation Type: Evaluation A (Pre-1980)
  mutagenic call: no conclusion

## ClCc1ccc(-c2ccccc2)cc1
[9]
  mutagenic call: no conclusion
[15]
  mutagenic call: active; positive
[16]
  mutagenic call: active; positive
[7]
  mutagenic call: inactive; negative

## Cc1ccc(N)c(N)c1
[10]
  mutagenic call: active; positive

## Clc1ccc(Oc2cc(Cl)c(Cl)cc2Cl)cc1
Species/Cell Type: Saccharomyces cerevisiae, Assay Type: Forward gene mutation, Assay Code: YEF-, Evaluation Type: Evaluation A (Pre-1980)
  mutagenic call: inactive; negative
Species/Cell Type: Saccharomyces cerevisiae, Assay Type: Mitotic recombination or gene conversion, Assay Code: YEC-, Evaluation Type: Evaluation A (Pre-1980)
  mutagenic call: inactive; negative
[6]
  mutagenic call: inactive; negative

## NC(=O)N1c2ccccc2[C@H](O)[C@@H](O)c2ccccc21
[11]
  mutagenic call: active; positive
[12]
  mutagenic call: active; positive

## CN(C)c1ccc(N=NS(=O)(=O)O)cc1
Species/Cell Type: Bacillus subtilis (H17 vs M45), Assay Type: Rec-assay, spot test, DNA effects (bacterial DNA repair), Assay Code: REW+, Evaluation Type: Evaluation A (Pre-1980)
  mutagenic call: active; positive
Species/Cell Type: Escherichia coli WP2, Assay Type: Tryptophan reverse gene mutation, Assay Code: WP2+, Evaluation Type: Evaluation A (Pre-1980)
  mutagenic call: active; positive
Species/Cell Type: Escherichia coli WP2 UVRA, Assay Type: Tryptophan reverse gene mutation, Assay Code: WPU+, Evaluation Type: Evaluation A (Pre-1980)
  mutagenic call: active; positive
[15]
  mutagenic call: active; positive
[16]
  mutagenic call: active; positive
Species/Cell Type: Nonhuman, Assay Code: CCG-, Evaluation Type: Evaluation A (Pre-1980)
  call: inactive; negative
[5]
  mutagenic call: active; positive
[3]
  mutagenic call: active; positive

## O=[N+]([O-])c1ccc2ccc3c4ccccc4cc4ccc1c2c43
Species/Cell Type: Chinese hamster ovary (CHO) cells, Assay Type: Forward gene mutation at the HPRT locus, Assay Code: CHO+*, Activation: With metabolic activation, Evaluation Type: Evaluation B (Post-1980)
  mutagenic call: active; positive

## Nc1ncnc2c1ncn2[C@H]1C[C@H](O)[C@@H](CO)O1
Species/Cell Type: Glycine max (soybean), Assay Type: Gene mutation, Assay Code: GLM-, Evaluation Type: Evaluation A (Pre-1980)
  mutagenic call: inactive; negative
Species/Cell Type: Nonhuman, Assay Type: Sister-chromatid exchange (SCE) in vitro, Assay Code: SC2T, Evaluation Type: Evaluation B (Post-1980)
  mutagenic call: no conclusion

## Clc1cccc(Br)c1
[14]
  mutagenic call: inactive; negative

## [Cl][Fe]([Cl])[Cl]
Species/Cell Type: Bacillus subtilis (H17 vs M45), Assay Type: Rec-assay, spot test, DNA effects (bacterial DNA repair), Assay Code: REW-, Evaluation Type: Evaluation A (Pre-1980)
  mutagenic call: inactive; negative
